PubChem BioAssay AID248 (DTP/NCI, 2004)
Toxic doses and inconclusive results are not listed. No stated cut-off is given here; in the data, active means T/C of 150% or more; inactive means T/C below 125%.

System: L1210 leukemia ip in BDF1 mice, survival T/C
Experiment: NCI In Vivo Anticancer Drug Screen. Data for tumor model L1210 Leukemia (intraperitoneal) in B6D2F1 (BDF1) mice
Conditions: endpoint: mean survival time, higher = longer survival
Procedure, shortened: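 Antitumor effect is assessed in tumor-bearing animals. Survival in the compound arm is compared with a vehicle-dosed control arm and expressed as their quotient.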

[1] = dose: 100.0 mg/kg/injection, schedule: Q04DX002 (ip), vehicle: saline with Tween-80
[2] = dose: 200.0 mg/kg/injection, schedule: Q04DX002 (ip), vehicle: saline with Tween-80
[3] = dose: 75.0 mg/kg/injection, schedule: Q01DX001 (ip), vehicle: carboxymethylcellulose (CMC)
[4] = dose: 100.0 mg/kg/injection, schedule: Q04DX003 (ip), vehicle: saline
[5] = dose: 200.0 mg/kg/injection, schedule: Q04DX003 (ip), vehicle: saline
[6] = dose: 400.0 mg/kg/injection, schedule: Q04DX003 (ip), vehicle: saline
[7] = dose: 100.0 mg/kg/injection, schedule: Q04DX002 (ip), vehicle: gum acacia
[8] = dose: 200.0 mg/kg/injection, schedule: Q04DX002 (ip), vehicle: gum acacia
[9] = dose: 400.0 mg/kg/injection, schedule: Q04DX002 (ip), vehicle: gum acacia
[10] = dose: 100.0 mg/kg/injection, schedule: Q01DX001 (ip), vehicle: saline
[11] = dose: 100.0 mg/kg/injection, schedule: Q01DX009 (ip), vehicle: saline with Tween-80
[12] = dose: 200.0 mg/kg/injection, schedule: Q01DX001 (ip), vehicle: saline
[13] = dose: 200.0 mg/kg/injection, schedule: Q01DX009 (ip), vehicle: saline with Tween-80
[14] = dose: 400.0 mg/kg/injection, schedule: Q01DX001 (ip), vehicle: saline
[15] = dose: 400.0 mg/kg/injection, schedule: Q01DX009 (ip), vehicle: saline with Tween-80
[16] = dose: 100.0 mg/kg/injection, schedule: Q04DX003 (ip), vehicle: saline with Tween-80
[17] = dose: 200.0 mg/kg/injection, schedule: Q04DX003 (ip), vehicle: saline with Tween-80
[18] = dose: 400.0 mg/kg/injection, schedule: Q04DX003 (ip), vehicle: saline with Tween-80

Measured: T/C

CCCCCCCCCCCCn1c(C)nc2ccccc21
inactive: dose: 2.4 mg/kg/injection, schedule: Q03HX024 (ip), vehicle: saline 94 % of control | dose: 3.6 mg/kg/injection, schedule: Q03HX024 (ip), vehicle: saline 91 % of control | dose: 5.0 mg/kg/injection, schedule: Q01DX001 (ip), vehicle: saline 104 % of control | dose: 5.0 mg/kg/injection, schedule: Q04DX003 (ip), vehicle: carboxymethylcellulose (CMC) 105 % of control | dose: 5.4 mg/kg/injection, schedule: Q03HX024 (ip), vehicle: saline 97 % of control | dose: 8.0 mg/kg/injection, schedule: Q03HX024 (ip), vehicle: saline 96 % of control | dose: 10.0 mg/kg/injection, schedule: Q01DX001 (ip), vehicle: saline 101 % of control | dose: 10.0 mg/kg/injection, schedule: Q04DX003 (ip), vehicle: carboxymethylcellulose (CMC) 106 % of control | dose: 12.0 mg/kg/injection, schedule: Q01DX009 (ip), vehicle: saline 116 % of control | dose: 12.0 mg/kg/injection, schedule: Q03HX024 (ip), vehicle: saline 104 % of control | dose: 18.0 mg/kg/injection, schedule: Q01DX009 (ip), vehicle: saline 118 % of control | dose: 20.0 mg/kg/injection, schedule: Q01DX001 (ip), vehicle: saline 104 % of control | dose: 20.0 mg/kg/injection, schedule: Q04DX003 (ip), vehicle: carboxymethylcellulose (CMC) 108 % of control | dose: 24.0 mg/kg/injection, schedule: Q01DX001 (ip), vehicle: saline 106 % of control | dose: 24.0 mg/kg/injection, schedule: Q04DX003 (ip), vehicle: saline 113 % of control | dose: 27.0 mg/kg/injection, schedule: Q01DX009 (ip), vehicle: saline 113 % of control | dose: 36.0 mg/kg/injection, schedule: Q01DX001 (ip), vehicle: saline 105 % of control | dose: 36.0 mg/kg/injection, schedule: Q04DX003 (ip), vehicle: saline 104 % of control | dose: 40.0 mg/kg/injection, schedule: Q01DX001 (ip), vehicle: saline 112 % of control

CCCCCCCCNC(=O)c1ccc([N+](=O)[O-])s1
inactive: dose: 100.0 mg/kg/injection, schedule: Q01DX005 (ip), vehicle: saline 94 % of control | dose: 200.0 mg/kg/injection, schedule: Q01DX005 (ip), vehicle: saline 94 % of control | dose: 400.0 mg/kg/injection, schedule: Q01DX005 (ip), vehicle: saline 94 % of control

CC(C)(C)CC(O)Cc1ccccc1 (configuration not stated)
inactive: [1] 93 % of control | [2] 93 % of control

O=c1c(O)c(O)c1=O
inactive: [3] 89 % of control | dose: 150.0 mg/kg/injection, schedule: Q01DX001 (ip), vehicle: carboxymethylcellulose (CMC) 98 % of control

COC(=O)c1ccccc1OC(=O)c1ccccc1
inactive: [4] 105 % of control | [5] 97 % of control | [6] 105 % of control

O=C1C(=O)c2ccccc2C(O)=C1C(CCc1ccccc1)C1=C(O)c2ccccc2C(=O)C1=O
inactive: [3] 106 % of control | dose: 75.0 mg/kg/injection, schedule: Q01DX001 (ip), vehicle: saline 96 % of control | dose: 150.0 mg/kg/injection, schedule: Q01DX001 (ip), vehicle: saline 94 % of control

N/C(N=P(c1ccccc1)(c1ccccc1)c1ccccc1)=N\[N+](=O)[O-]
inactive: [7] 101 % of control | [8] 107 % of control | [9] 101 % of control

O=C(S)CN1C(=O)c2ccccc2C1=O
inactive: dose: 100.0 mg/kg/injection, schedule: Q01DX001 (ip), vehicle: carboxymethylcellulose (CMC) 91 % of control | dose: 200.0 mg/kg/injection, schedule: Q01DX001 (ip), vehicle: carboxymethylcellulose (CMC) 93 % of control | dose: 400.0 mg/kg/injection, schedule: Q01DX001 (ip), vehicle: carboxymethylcellulose (CMC) 102 % of control

O=C1C2(Cl)C(Cl)=C(Cl)C1(Cl)C1(Cl)C(Cl)=C(Cl)C(=O)C21Cl (configuration not stated)
inactive: dose: 100.0 mg/kg/injection, schedule: Q01DX001 (ip), vehicle: Klucel (hydroxypropylcellulose) (HPC) 102 % of control | dose: 200.0 mg/kg/injection, schedule: Q01DX001 (ip), vehicle: Klucel (hydroxypropylcellulose) (HPC) 102 % of control | dose: 400.0 mg/kg/injection, schedule: Q01DX001 (ip), vehicle: Klucel (hydroxypropylcellulose) (HPC) 97 % of control

CN=C(NC)c1ccc(NC(=O)c2ccc(C(=O)Nc3ccc(C(=NC)NC)c(OC)c3)c(Cl)c2)cc1OC
inactive: dose: 1.26 mg/kg/injection, schedule: Q01DX Z (ip), vehicle: saline 98 % of control

O=[N+]([O-])c1ccc(OCC2CO2)cc1 (configuration not stated)
inactive: [7] 100 % of control | [8] 117 % of control | [9] 88 % of control

COc1ccc(Cl)cc1NC(=O)Nc1c(C)n(C)n(-c2ccccc2)c1=O
inactive: [10] 90 % of control | [11] 89 % of control | [4] 97 % of control | [12] 89 % of control | [13] 89 % of control | [5] 101 % of control | [14] 94 % of control | [15] 87 % of control | [6] 92 % of control

Nc1ccccc1SC(CC(=O)c1ccc(-c2ccccc2)cc1)c1ccco1 (configuration not stated)
inactive: [11] 94 % of control | [1] 105 % of control | [13] 91 % of control | [2] 102 % of control | [15] 91 % of control | dose: 400.0 mg/kg/injection, schedule: Q04DX002 (ip), vehicle: saline with Tween-80 91 % of control

O=Cc1cc(Cl)ccc1O
inactive: dose: 100.0 mg/kg/injection, schedule: Q01DX009 (ip), vehicle: Klucel (hydroxypropylcellulose) (HPC) 108 % of control | dose: 200.0 mg/kg/injection, schedule: Q01DX009 (ip), vehicle: Klucel (hydroxypropylcellulose) (HPC) 102 % of control

Cc1ccc2c(c1)CC(C)([CH2][Hg][Cl])O2 (configuration not stated)
inactive: dose: 3.0 mg/kg/injection, schedule: Q01DX009 (ip), vehicle: Klucel (hydroxypropylcellulose) (HPC) 91 % of control | dose: 3.0 mg/kg/injection, schedule: Q04DX003 (ip), vehicle: Klucel (hydroxypropylcellulose) (HPC) 90 % of control | dose: 6.0 mg/kg/injection, schedule: Q01DX009 (ip), vehicle: Klucel (hydroxypropylcellulose) (HPC) 91 % of control | dose: 6.0 mg/kg/injection, schedule: Q04DX003 (ip), vehicle: Klucel (hydroxypropylcellulose) (HPC) 87 % of control | dose: 12.0 mg/kg/injection, schedule: Q04DX003 (ip), vehicle: Klucel (hydroxypropylcellulose) (HPC) 92 % of control

N#CC(C#N)=CN1CCOCC1
inactive: [1] 87 % of control | [2] 87 % of control

CCCN1CCN(CCCO)CC1C (configuration not stated)
inactive: [10] 103 % of control | [12] 105 % of control | [14] 103 % of control

CCS(=O)(=O)CC(C)O (configuration not stated)
inactive: dose: 100.0 mg/kg/injection, schedule: Q01DX009 (ip), vehicle: saline 90 % of control | dose: 100.0 mg/kg/injection, schedule: Q04DX002 (ip), vehicle: saline 101 % of control | dose: 200.0 mg/kg/injection, schedule: Q01DX009 (ip), vehicle: saline 93 % of control | dose: 400.0 mg/kg/injection, schedule: Q01DX009 (ip), vehicle: saline 104 % of control | dose: 400.0 mg/kg/injection, schedule: Q04DX002 (ip), vehicle: saline 108 % of control

CCCCCCCCCCNC(=S)NNC(=O)CCCC(=O)NNC(=S)NCCCCCCCCCC
inactive: dose: 50.0 mg/kg/injection, schedule: Q01DX001 (ip), vehicle: saline 96 % of control | [10] 96 % of control | [12] 90 % of control | [14] 96 % of control

O=C(Nc1ccc(S(=O)(=O)F)cc1)/C(=C/c1ccc([N+](=O)[O-])cc1)CCc1ccccc1
inactive: [16] 105 % of control | [17] 97 % of control | [18] 94 % of control

COC(=O)NCCc1cc(OC)c(OC)cc1Br
inactive: [16] 86 % of control | [17] 91 % of control | [18] 91 % of control
